We go through 53 compounds from the PolyMetriX glass transition set.

As for `*C(=S)Nc1ccc(Oc2ccc(NC(=S)N3C(=O)c4ccc(C(c5ccc6c(c5)C(=O)N(*)C6=O)(C(F)(F)F)C(F)(F)F)cc4C3=O)cc2)cc1` (repeat unit), the glass transition temperature was 260.00 °C.
With `*C1CCC(N2C(=O)c3ccc(-c4ccc5c(c4)C(=O)N(*)C5=O)cc3C2=O)CC1` (repeat unit) the figure was 360.00 °C; with `*C1CCC(N2C(=O)c3ccc(S(=O)(=O)c4ccc5c(c4)C(=O)N(*)C5=O)cc3C2=O)CC1` (repeat unit), 363.00 °C.
To `*CC(C)/C=C(/*)C` (repeat unit) belongs 2.30 °C; to `*CC1CC2CC1C1CCC(CN3C(=O)c4ccc(C(c5ccc6c(c5)C(=O)N(*)C6=O)(C(F)(F)F)C(F)(F)F)cc4C3=O)C21` (repeat unit), 207.00 °C.
To `*CC1CCCC(CN2C(=O)c3ccc(-c4ccc5c(c4)C(=O)N(*)C5=O)cc3C2=O)C1` (repeat unit) belongs 234.00 °C; to `*CCCCCCCCCCCCN1C(=O)c2ccc(C(c3ccc4c(c3)C(=O)N(*)C4=O)(C(F)(F)F)C(F)(F)F)cc2C1=O` (repeat unit), 101.00 °C; to `*CCCCCCCN1C(=O)c2ccc(C(c3ccc4c(c3)C(=O)N(*)C4=O)(C(F)(F)F)C(F)(F)F)cc2C1=O` (repeat unit), 165.00 °C.
The compound `*CCCCN1C(=O)c2ccc(C(c3ccc4c(c3)C(=O)N(*)C4=O)(C(F)(F)F)C(F)(F)F)cc2C1=O` (repeat unit) registered a glass transition temperature of 190.00 °C.
As to `*CCN(CCN1C(=O)c2ccc(C(c3ccc4c(c3)C(=O)N(*)C4=O)(C(F)(F)F)C(F)(F)F)cc2C1=O)c1ccc(/N=N/c2ccc([N+](=O)[O-])cc2)cc1` (repeat unit), the glass transition temperature stood at 210.00 °C.
Compound `*Oc1ccc(-c2ccc(Oc3ccc(C(=O)c4cccc(C(=O)c5ccc(*)cc5)c4)cc3)cc2)cc1` (repeat unit) returned a glass transition temperature of 159.00 °C.
Compound `*Oc1ccc(C(C)(C)c2ccc(Oc3ccc4c(c3)C(=O)N(N3C(=O)c5ccc(*)cc5C3=O)C4=O)cc2)cc1` (repeat unit) had a glass transition temperature of 216.70 °C.
With `*Oc1ccc(C(C)(C)c2ccc(Oc3cccc(*)n3)cc2)cc1` (repeat unit) the figure was 107.00 °C; with `*Oc1ccc(C(C)(C)c2ccc(Oc3cncc(*)n3)cc2)cc1` (repeat unit), 145.00 °C.
In the case of `*Oc1ccc(S(=O)(=O)c2ccc(*)cc2)c2ccccc12` (repeat unit), the glass transition temperature was found to be 238.00 °C.
Compound `*Oc1ccc(S(=O)(=O)c2ccc(Oc3ccc(C(C)(C)c4ccc(*)c(C(O)(C(F)(F)F)C(F)(F)F)c4)cc3C(O)(C(F)(F)F)C(F)(F)F)cc2)cc1` (repeat unit) showed a glass transition temperature of 167.00 °C.
With `*Oc1ccc(S(=O)(=O)c2ccc(Oc3ccc(C(C)(C)c4ccc(*)c(Cl)c4)cc3Cl)cc2)cc1` (repeat unit) the figure was 205.00 °C.
For `*Oc1ccc(S(=O)(=O)c2ccc(Oc3ccc(C(C)(C)c4ccc(*)cc4)cc3)c(S(=O)(=O)O)c2)cc1S(=O)(=O)O` (repeat unit), the glass transition temperature came out at 188.00 °C.
With `*Oc1ccc(S(=O)(=O)c2ccc(Oc3ccc(C(C)(C)c4ccc(*)cc4)cc3)cc2N)c(N)c1` (repeat unit) the figure was 210.50 °C.
With `*Oc1ccc(S(=O)(=O)c2ccc(Oc3ccc(C(c4ccc(*)c([Si](C)(C)C)c4)(C(F)(F)F)C(F)(F)F)cc3[Si](C)(C)C)cc2[Si](C)(C)C)c([Si](C)(C)C)c1` (repeat unit) the figure was 148.90 °C.
`*Oc1ccc(S(=O)(=O)c2ccc(Oc3ccc(C(c4ccc(*)cc4)C(C)C)cc3)cc2)cc1` (repeat unit) had a glass transition temperature of 200.00 °C.
To `*Oc1ccc(S(=O)(=O)c2ccc(Oc3ccc(C4CCCC(C(C)c5ccc(*)cc5)C4)cc3)cc2)cc1` (repeat unit) belongs 230.00 °C; to `*Oc1ccc(S(=O)(=O)c2ccc(Oc3ccc(P(=O)(c4ccccc4)c4ccc(*)cc4)cc3)cc2)cc1` (repeat unit), 231.00 °C; to `*Oc1ccc(S(=O)(=O)c2ccc(Oc3ccc(P(C)(=O)c4ccc(*)cc4)cc3)cc2)cc1` (repeat unit), 233.00 °C.
On to `*Oc1ccc(S(=O)(=O)c2ccc3ccc(S(=O)(=O)c4ccc(*)cc4)cc3c2)cc1` (repeat unit), for which the glass transition temperature was found to be 250.00 °C.
With `*Oc1cccc(S(=O)(=O)c2ccc(*)cc2)c1` (repeat unit) the figure was 175.00 °C.
To `*Oc1ccccc1S(=O)(=O)c1ccc(*)cc1` (repeat unit) belongs 221.00 °C.
To `*Sc1ccc(Sc2ccc(Sc3ccc(P(=O)(c4ccccc4)c4ccc(*)cc4)cc3)cc2)cc1` (repeat unit) belongs 175.00 °C; to `*c1cc(N2C(=O)c3ccc(P(=O)(c4ccccc4)c4ccc5c(c4)C(=O)N(*)C5=O)cc3C2=O)cc(C(F)(F)F)c1` (repeat unit), 317.00 °C; to `*c1ccc(-c2ccc(-n3c(-c4ccc(Oc5ccc(C(=O)c6cccc(C(=O)c7ccc(Oc8ccc(-c9nc%10ccccc%10n9*)cc8)cc7)c6)cc5)cc4)nc4ccccc43)cc2)cc1` (repeat unit), 244.00 °C.
For `*c1ccc(Cc2ccc(N3C(=O)c4ccc(Oc5ccc(C(C)(C)c6ccc(Oc7ccc8c(c7)C(=O)N(*)C8=O)cc6)cc5)cc4C3=O)cc2)cc1` (repeat unit), the glass transition temperature worked out at 217.00 °C.
To `*c1ccc(N(c2ccc(C#N)cc2)c2ccc(N3C(=O)c4ccc(Oc5ccc(C(C)(C)c6ccc(C(C)(C)c7ccc(Oc8ccc9c(c8)C(=O)N(*)C9=O)cc7)cc6)cc5)cc4C3=O)cc2)cc1` (repeat unit) belongs 224.00 °C.
To `*c1ccc(N2C(=O)c3ccc(Oc4ccc(C(C)(C)c5ccc(Oc6ccc7c(c6)C(=O)N(c6ccc8[nH]c(*)nc8c6)C7=O)cc5)cc4)cc3C2=O)cc1` (repeat unit) belongs 324.00 °C.
With `*c1ccc(O)c(N2C(=O)c3ccc(Oc4ccc(C(C)(C)c5ccc(Oc6ccc7c(c6)C(=O)N(*)C7=O)cc5)cc4)cc3C2=O)c1` (repeat unit) the figure was 246.00 °C.
`*c1ccc(Oc2ccc(-c3ccc(Oc4ccc(N5C(=O)c6cccc(Oc7ccc(C(C)(C)c8ccc(Oc9cccc%10c9C(=O)N(*)C%10=O)cc8)cc7)c6C5=O)cc4)cc3)cc2)cc1` (repeat unit) had a glass transition temperature of 236.00 °C.
With `*c1ccc(Oc2ccc(C(=O)c3cccc(C(=O)c4ccc(Oc5ccc(-c6nc(-c7cccc(-c8nc(*)c(-c9ccccc9)[nH]8)c7)[nH]c6-c6ccccc6)cc5)cc4)c3)cc2)cc1` (repeat unit) the figure was 256.50 °C; with `*c1ccc(Oc2ccc(C(=O)c3cccc(C(=O)c4ccc(Oc5ccc(-c6nc(-c7ccccn7)nnc6*)cc5)cc4)c3)cc2)cc1` (repeat unit), 202.00 °C.
With `*c1ccc(Oc2ccc(C(=O)c3cccc(C(=O)c4ccc(Oc5ccc(N6C(=O)c7ccc(-c8ccc9c(c8)C(=O)N(*)C9=O)cc7C6=O)cc5)cc4)c3)cc2)cc1` (repeat unit) the figure was 222.00 °C.
With `*c1ccc(Oc2ccc(C(C)(C)c3ccc(Oc4ccc(S(*)(=O)=O)cc4)cc3)cc2)s1` (repeat unit) the figure was 162 °C.
In the case of `*c1ccc(Oc2ccc(N3C(=O)c4ccc(Oc5ccc(C(C)(C)c6ccc(Oc7ccc8c(c7)C(=O)N(*)C8=O)cc6)cc5)cc4C3=O)cc2)cc1` (repeat unit), the glass transition temperature was found to be 215.00 °C.
With `*c1ccc(Oc2ccc(S(=O)(=O)c3ccc(Oc4ccc(C5(*)OC(=O)c6ccccc65)cc4)cc3)cc2)cc1` (repeat unit) the figure was 247.00 °C; with `*c1ccc(Oc2ccc(S(=O)(=O)c3ccc(Oc4ccc(N5C(=O)c6ccc(Oc7ccc(C(C)(C)c8ccc(Oc9ccc%10c(c9)C(=O)N(*)C%10=O)cc8)cc7)cc6C5=O)cc4)cc3)cc2)cc1` (repeat unit), 200.00 °C; with `*c1ccc(Oc2cccc(-c3cc(-c4ccccc4)cc(-c4cccc(Oc5ccc(-n6c(=O)c7cc8c(=O)n(*)c(=O)c8cc7c6=O)cc5)c4)n3)c2)cc1` (repeat unit), 264.00 °C.
With `*c1ccc(Oc2cccc(Oc3ccc(-n4c(=O)c5cc6c(=O)n(*)c(=O)c6cc5c4=O)cc3)c2)cc1` (repeat unit) the figure was 326.00 °C; with `*c1ccc(Oc2ccccc2Oc2ccc(-n3c(=O)c4cc5c(=O)n(*)c(=O)c5cc4c3=O)cc2C(F)(F)F)c(C(F)(F)F)c1` (repeat unit), 277.00 °C.
Turning to `*c1ccc(S(=O)(=O)c2ccc(N3C(=O)C(C)C(SCCOCCSC4C(=O)N(c5ccc(S(=O)(=O)c6ccc(N7C(=O)CC(C)(SCCOCCSC8(C)CC(=O)N(*)C8=O)C7=O)cc6)cc5)C(=O)C4C)C3=O)cc2)cc1` (repeat unit), the glass transition temperature was 157.00 °C.
To `*c1ccc(Sc2ccc(-n3c(=O)c4cc5c(=O)n(*)c(=O)c5cc4c3=O)cn2)nc1` (repeat unit) belongs 359.00 °C; to `*c1ccc(Sc2ccc(S(*)(=O)=O)cc2)cc1` (repeat unit), 215.00 °C; to `*c1ccc(Sc2ccc3c(c2)Sc2ccc(Sc4ccc(-n5c(=O)c6cc7c(=O)n(*)c(=O)c7cc6c5=O)cc4)cc2S3)cc1` (repeat unit), 254.8 °C.
With `*c1ccc([Si](C)(C)[Si](*)(C)C)s1` (repeat unit) the figure was 15.00 °C; with `*c1ccc2c(c1)C(=O)N(c1cc(-c3ccc(O)c(N4C(=O)c5ccc(C(*)(C(F)(F)F)C(F)(F)F)cc5C4=O)c3)ccc1O)C2=O` (repeat unit), 370.00 °C.
With `*c1ccc2c(c1)C(=O)N(c1cc(N3C(=O)c4ccc(C(*)(C(F)(F)F)C(F)(F)F)cc4C3=O)c(O)cc1O)C2=O` (repeat unit) the figure was 324.00 °C; with `*c1cccc(-n2nc(-c3ccccc3)c3cc(Oc4ccc(C(C)(C)c5ccc(Oc6ccc7c(-c8ccccc8)nn(*)c(=O)c7c6)cc5)cc4)ccc3c2=O)c1C#N` (repeat unit), 200.00 °C.
